Data set [1] deals with NASH mice. Kind of data set: Example 1: STZ plus high fat diet NASH mouse model, effect of CF102 on liver weight, ALT, TG and liver histology. The format is in vivo, Male C57BL/6 mice. As to the method: Male C57BL/6 mice were used as a murine experimental model.
The A3AR agonist, 2-Chloro-N^6-(3-iodobenzyl)-adenosine-5′-N-methyluronamide (Cl-IB-MECA, referred to herein by the abbreviated name CF102), was synthesized for Can-Fite BioPharma by Albany Molecular Research Inc, Albany. N.Y., USA. CF102 was used in liquid form, dissolved in dimethyl sulfoxide (DMSO), used as the vehicle. Dissolved CF102 and the DMSO vehicle were administered at the same volume.
Male C57BL/6 mice were injected with a single subcutaneous injection of 200 μg streptozotocin (STZ) two days after birth and feeding with high fat diet after 4 weeks of age. […] Treatment was given between 6 weeks of age and 9 weeks of age.
After Study termination, liver weight was measured and Liver-to-Body weight ratio was calculated.
Plasma ALT and liver triglyceride were measured and histological analyses were made on the liver sections for the following: Hematoxylin & Eosin staining for estimation of NAFLD Activity score and Sirius red staining for estimation of fibrosis area.

Data set [2] relates to NASH mice. Nature of the data set: Example 2: STZ plus high fat diet mouse model, effect of CF102 on NAS score. As to conditions: CF102 200 μg/kg orally thrice daily, 6 to 9 weeks of age; compared to the vehicle. The format is in vivo. The protocol:
Male mice were injected with 200 μg/animal STZ two days after birth. From 4 weeks of age, the mice were fed with high fat diet. At 6 weeks of age, the mice were randomized into vehicle and CF102 200 μg/kg treatment groups. Treatment was given orally, thrice daily. Termination was performed after 9 weeks. Hematoxylin & Eosin staining was used for estimation of NAFLD Activity.

In a further data set the test system is hepatocyte. As to conditions: as disclosed in WO09/050707; cited from earlier work.
Where [3] appears, read: Hematoxylin & Eosin liver histology, compared to the Vehicle.
The mark [4] stands for this setting: NASH mice, CF102 orally thrice daily from 6 to 9 weeks of age, vs vehicle.

Molecules are shown by their SMILES. Entries after “also recorded” stand apart in the source; their conditions may differ.

In the case of `CNC(=O)[C@H]1O[C@@H](n2cnc3c(NCc4cccc(I)c4)nc(Cl)nc32)[C@H](O)[C@@H]1O` [CF102, 2-Chloro-N^6-(3-iodobenzyl)-adenosine-5′-N-methyluronamide], the NAFLD activity score entry with NASH mice [1] (CF102 200 μg/kg, FIG. 4) is reported as “decrease in NAFLD activity score”. Besides, in the data set with NASH mice [1] (setting [3]), the “ballooning (liver sections)” value is recorded as “significant decrease”, the “lobular inflammation (liver sections)” value is reported as “significant decrease” and the “steatosis (liver sections)” value is reported as “significant decrease”. The liver-to-body weight ratio result in the data set on NASH mice [1] (NASH livers in mice, CF102 orally thrice daily from 6 to 9 weeks of age, vs vehicle, p=0.05) was “reduced liver-to-body weight ratio; also recorded: reduction of liver-to-body weight ratio”. In the data set with NASH mice [1] (setting [4]), the “Triglycerides levels in the liver” value was “decrease” and the “plasma ALT level” value is on record as “decreased ALT levels; also recorded: decrease in plasma ALT level”. Besides, the “inflammation NAS (NAFLD Activity Score) score” value with NASH mice [2] was “reduced the inflammation NAS; also recorded: reducing the inflammation NAS score”. In addition, the hepatocyte proliferation result with hepatocyte is given as “induce hepatocyte proliferation”.

(Values after patent US10780106B2, “Method for treating NASH accompanied by fibrosis using Cl-IB-MECA” (CAN-FITE BIOPHARMA LTD., priority 2015, dated 2020).)
